Results as given in patent US9388444B2, “Use of glucosyltransferase gene” (The United States of America, as represented by the …, priority 2013, dated 2016).

Key:
Gtf-1 = test: In vitro HPLC-MS glucosyltransferase activity assay with sonicated extract of recombinant S. cerevisiae [pYES2/NT/gft1]; format: biochemical, C. bombicola; conditions: for glucosyltransferase enzyme activity toward lipid substrate (appearance of glucoside product): UDP-glucose as sugar substrate, 30° C., 3 hours, HPLC-MS, product absent with control [pYES2/NT/lacZ] extract; for effect of lipid stock solvent on enzyme activity: solvent used to prepare 50 mM lipid stock solution
Experimental: An in vitro enzyme activity assay is performed to verify the functional property of Gtf-1 expressed in the recombinant S. cereviciae [pYES2/NT/gft1]. In this plasmid, the expression of gtf-1 is regulated by a yeast GAL1 promoter that is inducible by the addition of galactose (FIG. 1). An HPLC-MS-based method is developed to assay for glucosyltransferase activity in recombinant S. cerevisiae expressing C. bombicola gft-1 gene cloned in the pYES2/NT/gft1 plasmid construct. As control samples, S. cerevisiae transformed with pYES2/NT/gft1CON and pYES2/NT/lacZ are included in the study. The growing and induction of S. cerevisiae cells is performed according to the protocol described in the manual of pYES2/NT Yeast Expression System (Invitrogen, Carlsbad, Calif.). Briefly, cells from long-term (−80° C.) storage stock cultures are streaked on Yeast Extract Peptone Dextrose (YPD) agar solid medium (1% w/v yeast extract, 2% w/v peptone, 2% w/v dextrose (D-(+)glucose), 2% w/v agar) and grown at 30° C. for 1 to 2 days. A single colony is picked to inoculate 5 ml of SC-U+Glu(2%) in a 25-ml Erlenmeyer flask. The culture is grown overnight at 30° C. and 200 rpm. A volume of the overnight culture, which is based on achieving a theoretical absorbance at 600 nm (A600 nm)=0.4 in the fresh culture, is added to 50 ml of SC-U+Raf(2%) medium in a 125-ml Erlenmeyer. After an overnight incubation (30° C., 200 rpm), A600 nm values of the cultures are recorded. Five ml of sterile 20% (w/v) D-(+)-galactose are added to each culture to induce expression of the cloned gene, and the cells are incubated for 4 hours at 30° C., 200 rpm. Cells are then harvested by centrifugation (Sorvall RC-5B Plus centrifuge; 5,000×g; 10 min; 4° C.) (ThermoFisher Scientific, Waltham, Mass.) with the supernatant being decanted. The pelleted cells are resuspended and washed with 5 ml cold water, undergo another centrifugation using same parameters with removal of the supernatant after centrifugation, and are resuspended in a volume of a Breaking Buffer (50 mM sodium phosphate at pH 7.4; 1 mM Na-EDTA; 5% v/v glycerol; 1 mM phenylmethylsulfonylfluoride (PMSF) which is added immediately before use) in 15-mL Corex centrifugation tube to give a theoretical A600 nm of 200. Cell suspension can be stored at −20° C. overnight and still retain glucosyltransferase activity. Cells are broken by sonication (Sonicator model W-385 equipped with a microtip probe; Heat-Systems, Inc., Farmingdale, N.Y.) for 10 to 15 seconds (with 30 seconds sample cooling on ice-water bath) at maximum probe-tolerant power setting. The sonicated cell suspension (SCS) is used in the reaction mixtures to assay for glycosylation activity.
The reaction mixture for glycosylation assay is largely based on that described by Saerens et al. 2011b. The following procedure is used: 10 μl of a 50 mM-lipid substrate stock solution (which is prepared in one of the following solvents: DMF (dimethylformamide), DMSO ([…]), THF (tetrahydrofuran), ethylacetate, or ethanol) and 10 μl of a 50 mM-UDP-glucose solution (Sigma Aldrich, St. Louis, Mo.) are added to 30 μl of 50 mM potassium phosphate buffer (pH 7.5) in a 13×100 mm test tube on ice. 200 μl of the sonicated cell suspension is then added to the mixture of the two substrates. The final reaction mixture (250 μl) is incubated at 30° C. for 3 hours with frequent manual mixing (approximately every 10-15 minutes). The reaction is stopped by the addition of 200 μl of 2N HCl, followed by vigorous vortex mixing for approximately 30 to 60 seconds. The reaction mixture is extracted with 1 to 2 ml 1:1 v/v ethylether/ethylacetate mixture by vigorous vortex mixing. The tube is placed on lab bench undisturbed for phase separation to occur. Using a Hamilton syringe, the organic phase (upper layer) is carefully removed and is placed into a clean test tube (12×75 mm). The solvent is then evaporated by passing a stream of nitrogen gas over the solution, leaving a dry residue. […]

[1] = aqueous solution of sophorolipid; cited from earlier work

| Compound | glucosyltransferase enzyme activity toward lipid substrate (appearance of glucoside product) (Gtf-1) | other results |
| --- | --- | --- |
| 17-hydroxy-oleate [17-OH oleate] | presence of glucosyltransferase enzyme activity is confirmed | – |
| CN(C)C=O [DMF, dimethylformamide] | – | effect of lipid stock solvent on enzyme activity (Gtf-1): without adversely impacting on enzymatic activity |
| C1CCOC1 [THF, tetrahydrofuran] | – | effect of lipid stock solvent on enzyme activity (Gtf-1): inhibits enzyme activity |
| CC(C)CCC[C@@H](C)[C@H]1CC[C@H]2[C@@H]3CC=C4C[C@@H](O)CC[C@]4(C)[C@H]3CC[C@]12C [cholesterol] | presence of glucosyltransferase enzyme activity is confirmed | – |
| CC(C)[C@@H](C)/C=C/[C@@H](C)[C@H]1CC[C@H]2C3=CC=C4C[C@@H](O)CC[C@]4(C)[C@H]3CC[C@]12C [ergosterol] | give the same results | – |
| CC[C@H](/C=C/[C@@H](C)[C@H]1CC[C@H]2[C@@H]3CC=C4C[C@@H](O)CC[C@]4(C)[C@H]3CC[C@]12C)C(C)C [stigmasterol] | give the same results | – |
| CC[C@H](CC[C@@H](C)[C@H]1CC[C@H]2[C@@H]3CC=C4C[C@@H](O)CC[C@]4(C)[C@H]3CC[C@]12C)C(C)C [β-sitosterol] | give the same results | – |
| sophorolipid | – | Surface tension [1]: 30-40 mN/m |
